# Assays:
# [1] = target: D1 receptor (Homo sapiens (Human), UniProt P21728); details: D1 receptor subtype; cited from earlier work
# [2] = target: D5 receptor (Homo sapiens (Human), UniProt P21918); details: D5 receptor subtype; cited from earlier work
# [3] = 2014 study, 30 psychiatric drugs tested; cited from earlier work
# [4] = target: D4 receptor (Homo sapiens (Human), UniProt P21917); details: D4 receptor subtype; cited from earlier work
# [5] = test system: PCP-treated rats; experiment: Novel Object Recognition (NOR) assay, sub-chronic PCP; type: in vivo, rat; details: PO; for difference between novel and familiar object exploration time: 3 hours post-dose, all doses save one; for known object exploration behavior in rats treated with PCP: compared to untreated rats
# Protocol: Efficacy of Compounds 102 and 103 was evaluated in rats in a Novel Object Recognition (NOR) assay, a well-established model recapitulating cognitive and negative aspects of the PANSS scale of schizophrenia. In this assay, animals were treated for several weeks with a low dose of phencyclidine (PCP) to impair the ability of the rat to discern between novel and familiar objects. Typically rats, like humans, would spend more time exploring a novel object than a familiar one.
# Rats (n=10/group) were dosed with 2 mg/kg intraperitoneal twice a day (i.p., b.i.d.) for seven days followed by 7 days drug free. […] Novel object exploration time was measured for the test subjects from a sub-chronic PCP NOR study in rats (n=10/group). The differences in exploration time between novel (Tnovel¬) and familiar (Tfamliar) objects are depicted in FIG. 1A (*: p<0.05; and **: p<0.01).
# Sequence of D4 receptor (P21917 whole entry): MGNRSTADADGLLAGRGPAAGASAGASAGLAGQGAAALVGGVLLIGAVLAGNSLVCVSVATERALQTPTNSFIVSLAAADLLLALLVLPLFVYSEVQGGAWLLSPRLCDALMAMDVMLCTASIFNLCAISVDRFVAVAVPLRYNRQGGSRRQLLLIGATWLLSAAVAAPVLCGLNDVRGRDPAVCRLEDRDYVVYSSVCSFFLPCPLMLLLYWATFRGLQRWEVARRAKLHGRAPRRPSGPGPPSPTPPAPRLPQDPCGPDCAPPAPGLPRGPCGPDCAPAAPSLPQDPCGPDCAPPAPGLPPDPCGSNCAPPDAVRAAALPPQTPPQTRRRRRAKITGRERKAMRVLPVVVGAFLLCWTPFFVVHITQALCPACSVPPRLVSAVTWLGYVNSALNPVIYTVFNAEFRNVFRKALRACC
# Sequence of D5 receptor (P21918 whole entry): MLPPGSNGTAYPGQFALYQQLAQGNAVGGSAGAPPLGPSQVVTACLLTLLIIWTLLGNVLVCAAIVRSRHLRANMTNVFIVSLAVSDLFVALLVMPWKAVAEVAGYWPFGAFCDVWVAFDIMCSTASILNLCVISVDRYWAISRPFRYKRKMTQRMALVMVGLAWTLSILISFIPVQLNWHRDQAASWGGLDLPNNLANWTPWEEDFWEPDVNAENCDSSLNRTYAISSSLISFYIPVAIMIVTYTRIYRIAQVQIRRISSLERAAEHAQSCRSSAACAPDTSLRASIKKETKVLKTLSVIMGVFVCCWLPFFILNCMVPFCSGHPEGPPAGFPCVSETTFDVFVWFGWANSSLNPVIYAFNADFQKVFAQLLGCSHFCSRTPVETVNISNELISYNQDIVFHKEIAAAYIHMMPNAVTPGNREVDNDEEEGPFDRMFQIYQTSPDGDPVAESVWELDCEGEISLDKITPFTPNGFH
# Sequence of D1 receptor (P21728 whole entry): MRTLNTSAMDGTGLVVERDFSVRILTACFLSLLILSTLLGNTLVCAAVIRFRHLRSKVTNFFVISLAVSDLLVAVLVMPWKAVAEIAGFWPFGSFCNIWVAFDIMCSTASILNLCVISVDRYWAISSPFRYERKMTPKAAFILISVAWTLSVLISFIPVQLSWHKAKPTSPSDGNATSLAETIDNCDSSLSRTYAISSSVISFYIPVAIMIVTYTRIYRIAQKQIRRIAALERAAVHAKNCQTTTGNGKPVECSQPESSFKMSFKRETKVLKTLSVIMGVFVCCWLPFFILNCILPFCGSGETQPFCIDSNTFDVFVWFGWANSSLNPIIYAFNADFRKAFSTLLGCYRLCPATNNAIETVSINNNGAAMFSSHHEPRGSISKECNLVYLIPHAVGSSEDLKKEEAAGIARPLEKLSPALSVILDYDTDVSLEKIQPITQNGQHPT
SMILES,affinity [1],affinity [2],passive diffusion across a PAMPA membrane (Pe) [3],affinity [4],difference between novel and familiar object exploration time [5],known object exploration behavior in rats treated with PCP [5]
"CCN1CCCC1CNC(=O)c1cc(S(=O)(=O)CC)c(N)cc1OC (centres unmarked) [Amisulpride, 4-amino-N-(((1-ethyl-2-pyrrolidinyl)methyl)-5-(ethylsulfonyl))-2-methoxybenzamide]",without any affinity,without any affinity,lowest of 30 psychiatric drugs tested,without any affinity,–,–
CCN1CCCC1CNC(=O)c1cc(S(=O)(=O)CC)c(NC)cc1OC (centres unmarked) [Compound 102],–,–,–,–,increased,able to restore known object exploration behavior in rats treated with PCP to levels similar to untreated rats
"CCN1CCC[C@H]1CNC(=O)c1cc(S(=O)(=O)CC)c(NC)cc1OC [Compound 103, ((S)-4-methylamino-N-((1-ethyl-2-pyrrolidinyl)methyl)-5-(ethylsulfonyl))-2-methoxybenzamide]",–,–,–,–,increased,able to restore known object exploration behavior in rats treated with PCP to levels similar to untreated rats

# Source: patent US10259786B2, “Psychotropic agents and uses thereof” (LB PHARMACEUTICALS INC., priority 2016, dated 2019)
